Two molecules from US5491155A, “Substituted thiadiazoles, compositions containing them and their use as antimicrobial and marine antifouling agents” (The Dow Chemical Company, priority 1994, dated 1996) can be followed below.

The subject of test [1] is Pseudomonas aeruginosa (PRD-10). Nature of the test: MIC in nutrient agar, Pseudomonas aeruginosa (PRD-10). The test is classed as cell-based, Pseudomonas aeruginosa (ATCC 15442). As to conditions: PRD, 48 hours, read-out: Minimum Inhibitory Concentration (MIC). Here is the method:
(§1) The minimum inhibitory concentration (MIC) for the compounds listed in Table I is determined for bacteria, using nutrient agar, and 7 yeast and fungi, using malt yeast agar. A one percent solution of the test compound is prepared in a mixture of acetone and water.
(§2) Nutrient agar is prepared at pH 6.8, representing a neutral medium, and at pH 8.2, representing an alkaline medium. The nutrient agars are prepared by adding 23 g of nutrient agar to one-liter of deionized water. In addition, the alkaline medium is prepared by adjusting a 0.04M solution of N-(tris-(hydroxymethyl)methyl)glycine buffered deionized water with concentrated sodium hydroxide to a pH of 8.5.
(§3) The test tubes containing the agar are cooled in a water bath until the temperature of the agar is 48° C. Then, an appropriate amount of the one percent solution of the test compound is added (except in the controls where no compound is added) to the respective test tubes so that the final concentrations are 500, 250, 100, 50, 25, 10, 2.5, 1.0 and zero parts per million of the test compound in the agar, thus having a known concentration of test compound dispersed therein. The contents of the test tubes are then transferred to respective petri plates. After drying for 24 hours, the petri plates containing nutrient agar are inoculated with bacteria and those containing malt yeast agar are inoculated with yeast and fungi.
(§4) The inoculation with bacteria is accomplished by using the following procedure. Twenty-four hour-cultures of each of the bacteria are prepared by incubating the respective bacteria in tubes containing nutrient broth for 24 hours at 30° C. in a shaker. Dilutions of each of the 24 hour-cultures are made so that nine separate suspensions (one for each of the nine test bacteria) are made, each containing 10^8 colony forming units (CFU) per mL of suspension of a particular bacteria. Aliquots of 0.3 mL of each of the bacterial suspensions are used to fill the individual wells of Steer's Replicator. For each microbial suspension, 0.3 mL was used to fill three wells (i.e., three wells of 0.3 mL each) so that for the nine different bacteria, 27 wells are filled. The Steer's Replicator is then used to inoculate both the neutral and alkaline pH nutrient agar petri plates.
(§5) The inoculated petri plates are incubated at 30° C. for 48 hours and then read to determine if the test compound which is incorporated into the agar prevented growth of the respective bacteria.
(§6) Table II lists the bacteria, yeast and fungi used in the MIC test described above along with their respective American Type Culture Collection (ATCC) identification numbers.
(§7) In Tables III and IV, the MIC values of the compounds described in Table I as compared to the MIC of a standard commercial preservative (with 1-(3-chloroalkyl)-3,5,7-triaza-1-azoniaadamantane chloride as the active agent and referred to in Tables III and IV as "STANDARD I") are set forth for the bacteria organisms and yeast/fungi organisms which are listed in Table II.

The test system of a further test is Penicillium chrysogenum. The test is described as follows: MIC in malt yeast agar, Penicillium chrysogenum. As to conditions: Pc; malt yeast agar; 30° C.; 72 hours for fungi; read-out: Minimum Inhibitory Concentration (MIC). The test is classed as cell-based, Penicillium chrysogenum (ATCC 9480). Here is the method: as §1
(§8) Malt yeast agar is prepared by adding 3 g yeast extract and 45 g malt agar per liter of deionized water. The specific agar is dispensed in 30 mL aliquots into 25×200 mm test tubes, capped and autoclaved for 15 minutes at 115° C.
as §3
(§9) The inoculation with the yeast and fungi is accomplished as follows. Cultures of yeast and fungi are incubated for seven days on malt yeast agar at 30° C. These cultures are used to prepare suspensions by the following procedure. A suspension of each organism is prepared by adding 10 mL of sterile saline and 10 microliters of octylphenoxy polyethoxy ethanol to the agar slant of yeast or fungi. The sterile saline/octylphenoxy polyethoxy ethanol solution is then agitated with a sterile swab to suspend the microorganism grown on the slant. Each resulting suspension is diluted into sterile saline (1 part suspension: 9 parts sterile saline). Aliquots of these dilutions are placed in individual wells of Steer's Replicator and petri plates inoculated as previously described. The petri plates are incubated at 30° C. and read after 48 hours for yeast and 72 hours for fungi.
as §6, §7

A further test relates to Salmonella choleraesuis. The test is described as follows: MIC in nutrient agar, Salmonella choleraesuis. As to conditions: Salmonella enterica, Sc, 48 hours, read-out: Minimum Inhibitory Concentration (MIC). It is filed as cell-based, Salmonella choleraesuis (ATCC 10708). Here is the method: as §1, §2, §3, §4, §5, §6, §7
The subject of the next test is Fusarium oxysporum. Nature of the test: MIC in malt yeast agar, Fusarium oxysporum. The test is classed as cell-based, Fusarium oxysporum (ATCC 48112). As to conditions: Fo; malt yeast agar; 30° C.; 72 hours for fungi; read-out: Minimum Inhibitory Concentration (MIC). Here is the method:
as §1, §8, §3, §9, §6, §7

Another test relates to Proteus vulgaris. The test is described as follows: MIC in nutrient agar, Proteus vulgaris. The test is classed as cell-based, Proteus vulgaris (ATCC 881). The settings on record: Pv, 48 hours, read-out: Minimum Inhibitory Concentration (MIC). The procedure: as §1, §2, §3, §4, §5, §6, §7
The test system of the next test is Trichoderma viride. Nature of the test: MIC in malt yeast agar, Trichoderma viride. The test is classed as cell-based, Trichoderma viride (ATCC 8678). The settings on record: Tv; malt yeast agar; 30° C.; 72 hours for fungi; read-out: Minimum Inhibitory Concentration (MIC). Here is the method: as §1, §8, §3, §9, §6, §7
A further test relates to Bacillus subtilis. Nature of the test: MIC in nutrient agar, Bacillus subtilis. The test is classed as cell-based, Bacillus subtilis (ATCC 8473). As to conditions: Bs, 48 hours, read-out: Minimum Inhibitory Concentration (MIC). The procedure:
as §1, §2, §3, §4, §5, §6, §7

A further test relates to Aspergillus niger. Nature of the test: MIC in malt yeast agar, Aspergillus niger. The test is classed as cell-based, Aspergillus niger (ATCC 16404). As to conditions: An; malt yeast agar; 30° C.; 72 hours for fungi; read-out: Minimum Inhibitory Concentration (MIC). The procedure:
as §1, §8, §3, §9, §6, §7

In the next test the test system is Enterobacter aerogenes. The test is described as follows: MIC in nutrient agar, Enterobacter aerogenes. It is filed as cell-based, Enterobacter aerogenes (ATCC 13048). The settings on record: Klebsiella aerogenes, Ea, 30° C., 48 hours, read-out: Minimum Inhibitory Concentration (MIC). The procedure: as §1, §2, §3, §4, §5, §6, §7
Another test relates to Staphylococcus aureus. The test is described as follows: MIC in nutrient agar, Staphylococcus aureus. The settings on record: Sa, 48 hours, read-out: Minimum Inhibitory Concentration (MIC). The test is classed as cell-based, Staphylococcus aureus (ATCC 6538). Here is the method: as §1, §2, §3, §4, §5, §6, §7
A further test relates to Escherichia coli. Nature of the test: MIC in nutrient agar, Escherichia coli. As to conditions: Ec, 48 hours, read-out: Minimum Inhibitory Concentration (MIC). It is filed as cell-based, Escherichia coli (ATCC 11229). The procedure:
as §1, §2, §3, §4, §5, §6, §7

For another test, the system named is Candida albicans. Nature of the test: MIC in malt yeast agar, Candida albicans. The test is classed as cell-based, Candida albicans (ATCC 10231). The settings on record: Ca; malt yeast agar; 30° C.; 48 hours for yeast; read-out: Minimum Inhibitory Concentration (MIC). The procedure: as §1, §8, §3, §9, §6, §7
In a further test the test system is Klebsiella pneumonias. Nature of the test: MIC in nutrient agar, Klebsiella pneumonias. It is filed as cell-based, Klebsiella pneumonias (ATCC 8308). The settings on record: Kp, 48 hours, read-out: Minimum Inhibitory Concentration (MIC). Here is the method:
as §1, §2, §3, §4, §5, §6, §7

For another test, the system named is Saccharomyces cerevisiae. Nature of the test: MIC in malt yeast agar, Saccharomyces cerevisiae. It is filed as cell-based, Saccharomyces cerevisiae (ATCC 4105). The settings on record: Sc, malt yeast agar, 30° C., 48 hours for yeast, read-out: Minimum Inhibitory Concentration (MIC). Here is the method: as §1, §8, §3, §9, §6, §7
A further test concerns Aureobasidium pullulan. Nature of the test: MIC in malt yeast agar, Aureobasidium pullulan. It is filed as cell-based, Aureobasidium pullulan (ATCC 16622). As to conditions: Ap; malt yeast agar; 30° C.; 72 hours for fungi; read-out: Minimum Inhibitory Concentration (MIC). The procedure:
as §1, §8, §3, §9, §6, §7

A further test has as its system Pseudomonas aeruginosa. The test is described as follows: MIC in nutrient agar, Pseudomonas aeruginosa (Pa). It is filed as cell-based, Pseudomonas aeruginosa (ATCC 10145). The settings on record: Pa, 48 hours, read-out: Minimum Inhibitory Concentration (MIC). Here is the method: as §1, §2, §3, §4, §5, §6, §7

Structures are written as SMILES. Converted amounts (≈) assume the structure as drawn. Like-named read-outs stand apart in the source and are kept apart here.

Consider `N#CSCOc1nsnc1OCSC#N` [Example 8, 3,4-Bis(thiocyanato-methyloxo)-1,2,5-thiadiazole], for which the MIC is 500 µg/mL (≈ 1920 µM) in test [1] (pH 6.8, 30° C.); 250 µg/mL (≈ 960 µM) in test [1] (pH 8.2, 30° C.); under 10 µg/mL in the test on Penicillium chrysogenum; 25 µg/mL (≈ 96 µM) in the test with Salmonella choleraesuis (pH 6.8, 30° C.); 50 µg/mL (≈ 192 µM) in the test on Salmonella choleraesuis (pH 8.2, 30° C.); 25 µg/mL (≈ 96 µM) in the test with Fusarium oxysporum. Moreover, the MIC with Proteus vulgaris (pH 6.8, 30° C.) is 25 µg/mL (≈ 96 µM); with Proteus vulgaris (pH 8.2, 30° C.), 25 µg/mL (≈ 96 µM); with Trichoderma viride, 50 µg/mL (≈ 192 µM); with Bacillus subtilis (pH 6.8, 30° C.), under 10 µg/mL; in the test on Bacillus subtilis (pH 8.2, 30° C.), 25 µg/mL (≈ 96 µM); in the test with Aspergillus niger, under 10 µg/mL. For the same molecule, the MIC with Enterobacter aerogenes (pH 6.8) is 250 µg/mL (≈ 960 µM); with Enterobacter aerogenes (pH 8.2), 250 µg/mL (≈ 960 µM); with Staphylococcus aureus (pH 6.8, 30° C.), 25 µg/mL (≈ 96 µM); in the test with Staphylococcus aureus (pH 8.2, 30° C.), 25 µg/mL (≈ 96 µM); in the test with Escherichia coli (pH 6.8, 30° C.) it was 50 µg/mL (≈ 192 µM); with Escherichia coli (pH 8.2, 30° C.), 100 µg/mL (≈ 384 µM). Besides, the MIC in the test with Candida albicans is 50 µg/mL (≈ 192 µM); with Klebsiella pneumonias (pH 6.8, 30° C.), 100 µg/mL (≈ 384 µM); with Klebsiella pneumonias (pH 8.2, 30° C.), 50 µg/mL (≈ 192 µM); in the test with Saccharomyces cerevisiae it was 25 µg/mL (≈ 96 µM); in the test on Aureobasidium pullulan it was under 10 µg/mL; in the test on Pseudomonas aeruginosa (pH 6.8, 30° C.), 250 µg/mL (≈ 960 µM). The MIC in the test on Pseudomonas aeruginosa (pH 8.2, 30° C.) was found to be 100 µg/mL (≈ 384 µM).
`COc1nsnc1OCSC#N` [Example 7, 4-Methoxy-3-thiocyanato-methyloxo-1,2,5-thiadiazole]: the MIC was 25 µg/mL (≈ 123 µM) in test [1] (pH 6.8, 30° C.); under 10 µg/mL with Penicillium chrysogenum; 25 µg/mL (≈ 123 µM) in the test on Salmonella choleraesuis (pH 6.8, 30° C.); under 10 µg/mL in the test on Fusarium oxysporum; under 10 µg/mL in the test on Proteus vulgaris (pH 6.8, 30° C.); 25 µg/mL (≈ 123 µM) with Trichoderma viride. In addition, the MIC in the test on Bacillus subtilis (pH 6.8, 30° C.) was under 10 µg/mL; in the test with Aspergillus niger, under 10 µg/mL; in the test on Enterobacter aerogenes (pH 6.8) it was 25 µg/mL (≈ 123 µM); in the test on Staphylococcus aureus (pH 6.8, 30° C.), under 10 µg/mL; in the test on Escherichia coli (pH 6.8, 30° C.), 25 µg/mL (≈ 123 µM); in the test with Candida albicans, 25 µg/mL (≈ 123 µM). In addition, the MIC was under 10 µg/mL with Klebsiella pneumonias (pH 6.8, 30° C.); under 10 µg/mL with Saccharomyces cerevisiae; under 10 µg/mL in the test on Aureobasidium pullulan; under 10 µg/mL in the test on Pseudomonas aeruginosa (pH 6.8, 30° C.).
